biological target: human recombinant H-PGDS (Homo sapiens, UniProt O60760); experiment: Slightly modified fluorescence intensity h-PGDS TBA enzyme assay (1:40,000 enzyme, 40 second reaction, 1/2 log dilutions, top concentration typically 10 μM); format: biochemical; details: slightly modified assay: 1:40,000 human recombinant H-PGDS
How it was run: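 Enzyme pre-incubated 10 min at room temperature with inhibitor in 100 mM Trizma pH 8.0, 100 μM MgCl2, 0.1 mg/ml rabbit IgG, 2.5 mM glutathione, 0.5% DMSO; reaction started with 5.0 μM PGH2 and stopped with FeCl2/citric acid. Remaining PGH2 quantified as MDA–TBA fluorescence (ex 530/em 560 nm); IC50 from 4-parameter fit, 11 concentrations in duplicate.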

Sequence of human recombinant H-PGDS (O60760 whole entry): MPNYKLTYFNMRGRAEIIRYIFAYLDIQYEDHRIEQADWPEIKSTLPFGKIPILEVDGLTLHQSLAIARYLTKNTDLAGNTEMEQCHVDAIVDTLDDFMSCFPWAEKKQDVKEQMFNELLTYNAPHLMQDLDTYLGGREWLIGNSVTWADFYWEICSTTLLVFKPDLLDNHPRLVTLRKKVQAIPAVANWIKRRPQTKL

**Q.** Which IC50 does the source give for N[C@@H]1CCN(C(=O)[C@H]2CC[C@H](NC(=O)c3ccc(-c4cccc(F)c4)nc3)CC2)C1 [Example 99, N-(trans-4-{[(3R)-3-Aminopyrrolidin-1-yl]carbonyl}cyclohexyl)-6-(3-fluorophenyl)nicotinamide] here?
**A.** Its IC50 is 11.2 nM.

**Q.** Which IC50 does the source give for CN(C)C[C@H]1CC[C@H](NC(=O)c2ccc(-c3cccc(F)c3)nc2)CC1 [Example 112, N-{trans-4-[(Dimethylamino)methyl]cyclohexyl}-6-(3-fluorophenyl)nicotinamide] here?
**A.** The IC50 was 15.8 nM.

**Q.** Which IC50 does the source give for CCN1CCC(CNC(=O)[C@@H]2CCC[C@H](NC(=O)c3ccc(-c4cccc(F)c4)nc3)C2)C1 (relative stereo) [Example 64J, N-[cis-3-{[(1-ethylpyrrolidin-3-yl)methyl]carbamoyl}cyclohexyl]-6-(3-fluorophenyl)nicotinamide] here?
**A.** The IC50 was 19.6 nM.

**Q.** How did the IC50 turn out when CN1CCN(C2CCC(NC(=O)c3ccc(-c4cccc(F)c4)nc3)CC2)CC1 (single isomer, unassigned) [Example 52, 6-(3-Fluorophenyl)-N-[-4-(4-methylpiperazin-1-yl)cyclohexyl]nicotinamide] was run?
**A.** Its IC50 is 39.1 nM.

**Q.** How did the IC50 turn out when O=C(N[C@H]1CC[C@H](C(=O)NC2CCCC2)CC1)c1ccc(-c2cccc(F)c2)nc1 [Example 86, N-[trans-4-(Cyclopentylcarbamoyl)cyclohexyl]-6-(3-fluorophenyl)nicotinamide] was run?
**A.** Its IC50 is 25.6 nM.

**Q.** CN(C)C(=O)C[C@H]1CC[C@H](NC(=O)c2ccc(-c3cccc(F)c3)nc2)CC1 [Example 95, N-{trans-4-[2-(Dimethylamino)-2-oxoethyl]cyclohexyl}-6-(3-fluorophenyl)nicotinamide] was tested. Which IC50 did it give?
**A.** Its IC50 is 6.28 nM.

**Q.** For CN1CCN(C(=O)C2(C)CCC(NC(=O)c3ccc(-c4cccc(F)c4)nc3)CC2)CC1 (stereo not drawn) [Example 118, 6-(3-Fluorophenyl)-N-{cis-4-methyl-4-[(4-methylpiperazin-1-yl)carbonyl]cyclohexyl}nicotinamide], which IC50 is on record?
**A.** Its IC50 is 51.2 nM.

**Q.** For CCN1CCC(NC(=O)[C@@H]2CCC[C@H](NC(=O)c3ccc(-c4cccc(F)c4)nc3)C2)CC1 (relative stereo) [Example 64M, N-{cis-3-[(1-ethylpiperidin-4-yl)carbamoyl]cyclohexyl}-6-(3-fluorophenyl)nicotinamide], which IC50 is on record?
**A.** The IC50 was 509 nM.

**Q.** Which IC50 does the source give for O=C(N[C@H]1CC[C@@H](C(=O)N2CCCC2)CC1)c1ccc(-c2cccc(F)c2)nc1 [Example 70, 6-(3-Fluorophenyl)-N-[cis-4-(pyrrolidin-1-ylcarbonyl)cyclohexyl]nicotinamide] here?
**A.** Its IC50 is 4.62 nM.

**Q.** Which IC50 does the source give for CC(C)NC(=O)[C@H]1CC[C@H](NC(=O)c2ccc(-c3cccc(F)c3)nc2)CC1 [Example 88, 6-(3-Fluorophenyl)-N-[trans-4-(isopropylcarbamoyl)cyclohexyl]nicotinamide] here?
**A.** The IC50 was 14.7 nM.

**Q.** With O=C(N[C@H]1CCC[C@@H](C(=O)N2CCCC2)C1)c1ccc(-c2cccc(F)c2)nc1 (relative stereo) [Example 29, 6-(3-Fluorophenyl)-N-[cis-3-(pyrrolidin-1-ylcarbonyl)cyclohexyl]nicotinamide] as the molecule, how does the IC50 read?
**A.** The IC50 was 5.02 nM.

**Q.** For O=C(N[C@H]1CC[C@H](C(=O)O)CC1)c1ccc(-c2cccc(F)c2)nc1 [Example 84, trans-4-({[6-(3-fluorophenyl)pyridin-3yl]carbonyl}amino)cyclohexanecarboxylic acid], which IC50 is on record?
**A.** Its IC50 is 39.8 nM.

**Q.** How did the IC50 turn out when NC1CCC(NC(=O)c2ccc(-c3cccc(F)c3)nc2)CC1 (centres unmarked) [Example 44, N-(4-Aminocyclohexyl)-6-(3-fluorophenyl)nicotinamide] was run?
**A.** The IC50 was 67.5 nM.

**Q.** For O=C(N[C@H]1CCC[C@@H](C(=O)N2CCN(C3CC3)CC2)C1)c1ccc(-c2cccc(F)c2)nc1 (relative stereo) [Example 43, N-{cis-3-[(4-Cyclopropylpiperazin-1-yl)carbonyl]cyclohexyl}-6-(3-fluorophenyl)nicotinamide], which IC50 is on record?
**A.** Its IC50 is 14.4 nM.

**Q.** For O=C(NC1CCC(n2ccnc2)CC1)c1ccc(-c2cccc(F)c2)nc1 (centres unmarked) [Example 47, 6-(3-Fluorophenyl)-N-[4-(1H-imidazol-1-yl)cyclohexyl]nicotinamide], which IC50 is on record?
**A.** Its IC50 is 23 nM.

**Q.** CCN(CC)C(=O)[C@@H]1CCC[C@H](NC(=O)c2ccc(-c3cccc(F)c3)nc2)C1 (relative stereo) [Example 40, N-[cis-3-(Diethylcarbamoyl)cyclohexyl]-6-(3-fluorophenyl)nicotinamide] was tested. Which IC50 did it give?
**A.** The IC50 was 9 nM.

**Q.** O=C(N[C@H]1CC[C@@H](C(=O)O)CC1)c1ccc(-c2cccc(F)c2)nc1 [Example 66, cis-4-({[6-(3-Fluorophenyl)pyridin-3-yl]carbonyl}amino)cyclohexanecarboxylic acid] was tested. Which IC50 did it give?
**A.** Its IC50 is 97.4 nM.

**Q.** With O=C(N[C@H]1CC[C@H](C(=O)N2CCN(C3CC3)CC2)CC1)c1ccc(-c2cccc(F)c2)nc1 [Example 107, N-{trans-4-[(4-Cyclopropylpiperazin-1-yl)carbonyl]cyclohexyl}-6-(3-fluorophenyl)nicotinamide] as the molecule, how does the IC50 read?
**A.** The IC50 was 31.1 nM.

**Q.** Which IC50 does the source give for CNCCN(C)C(=O)[C@H]1CC[C@H](NC(=O)c2ccc(-c3cccc(F)c3)nc2)CC1 [Example 93, 6-(3-Fluorophenyl)-N-(trans-4-{methyl[2-(methylamino)ethyl]carbamoyl}cyclohexyl)nicotinamide] here?
**A.** The IC50 was 15.3 nM.

**Q.** For “N-{cis-3-[(3-aminocyclohexyl)carbamoyl]cyclohexyl}-6-(3-fluorophenyl)nicotinamide N-{trans-3-[(3-aminocyclohexyl)carbamoyl]cyclohexyl}-6-(3-fluorophenyl)nicotinamide [Example 64D]”, which IC50 is on record?
**A.** The IC50 was 14.7 nM.

**Q.** How did the IC50 turn out when O=C(N[C@H]1CC[C@@H](C(=O)N2CCOCC2)CC1)c1ccc(-c2cccc(F)c2)nc1 [Example 73, 6-(3-Fluorophenyl)-N-[cis-4-(morpholin-4-ylcarbonyl)cyclohexyl]nicotinamide] was run?
**A.** Its IC50 is 14 nM.

**Q.** With CN1CCN(C(=O)[C@H]2CC[C@@H](NC(=O)c3ccc(-c4cccc(F)c4)nc3)CC2)CC1 [Example 72, 6-(3-Fluorophenyl)-N-{cis-4-[(4-methylpiperazin-1-yl)carbonyl]cyclohexyl}nicotinamide] as the molecule, how does the IC50 read?
**A.** Its IC50 is 23.2 nM.

**Q.** For CN1CCN(C[C@H]2CC[C@H](NC(=O)c3ccc(-c4cccc(F)c4)nc3)CC2)CC1 [Example 111, 6-(3-Fluorophenyl)-N-{trans-4-[(4-methylpiperazin-1-yl)methyl]cyclohexyl}nicotinamide], which IC50 is on record?
**A.** Its IC50 is 23 nM.

**Q.** For O=C(NC1CCC(N2CC[C@@H](O)C2)CC1)c1ccc(-c2cccc(F)c2)nc1 (single isomer, unassigned) [Example 61], which IC50 is on record?
**A.** Its IC50 is 45 nM.

**Q.** For C[C@]1(C(=O)O)CC[C@H](NC(=O)c2ccc(-c3cccc(F)c3)nc2)CC1 [Example 117, trans-4-({[6-(3-Fluorophenyl)pyridin-3-yl]carbonyl}amino)-1-methylcyclohexanecarboxylic acid], which IC50 is on record?
**A.** The IC50 was 7.17 nM.

**Q.** Which IC50 does the source give for C[C@]1(O)CC[C@H](NC(=O)c2ccc(-c3cccc(F)c3)nc2)CC1 [Example 115, 6-(3-Fluorophenyl)-N-(trans-4-hydroxy-4-methylcyclohexyl)nicotinamide] here?
**A.** The IC50 was 8.74 nM.

**Q.** How did the IC50 turn out when C[C@H]1CN(C(=O)[C@H]2CC[C@H](NC(=O)c3ccc(-c4cccc(F)c4)nc3)CC2)CCN1 [Example 101, 6-(3-Fluorophenyl)-N-(trans-4-{[(3S)-3-methylpiperazin-1-yl]carbonyl}cyclohexyl)nicotinamide] was run?
**A.** Its IC50 is 15.8 nM.

**Q.** CC(C)(C)NC(=O)[C@H]1CC[C@@H](NC(=O)c2ccc(-c3cccc(F)c3)nc2)CC1 [Example 75, N-[cis-4-(tert-Butylcarbamoyl)cyclohexyl]-6-(3-fluorophenyl)nicotinamide] was tested. Which IC50 did it give?
**A.** The IC50 was 20.6 nM.

**Q.** Which IC50 does the source give for O=C(NC1CCC(N2CCC(O)CC2)CC1)c1ccc(-c2cccc(F)c2)nc1 (centres unmarked) [Example 62, 6-(3-Fluorophenyl)-N-[4-(4-hydroxypiperidin-1-yl)cyclohexyl]nicotinamide] here?
**A.** The IC50 was 137 nM.

**Q.** How did the IC50 turn out when O=C(N[C@H]1CC[C@H](C(=O)N2CCC(O)CC2)CC1)c1ccc(-c2cccc(F)c2)nc1 [Example 85, 6-(3-Fluorophenyl)-N-{trans-4-[(4-hydroxypiperidin-1-yl)carbonyl]cyclohexyl}nicotinamide] was run?
**A.** Its IC50 is 2.75 nM.

**Q.** N[C@H]1CCCC[C@@H]1NC(=O)[C@@H]1CCC[C@H](NC(=O)c2ccc(-c3cccc(F)c3)nc2)C1 (mixture of isomers) [Example 64B, N-[cis-3-{[(1S,2S)-2-aminocyclohexyl]carbamoyl}cyclohexyl]-6-(3-fluorophenyl)nicotinamide] was tested. Which IC50 did it give?
**A.** The IC50 was 64.6 nM.

**Q.** With CN1CCN(C2CCC(NC(=O)c3ccc(-c4cccc(F)c4)nc3)CC2)CC1 (single isomer, unassigned) [Example 51, 6-(3-Fluorophenyl)-N-[-4-(4-methylpiperazin-1-yl)cyclohexyl]nicotinamide] as the molecule, how does the IC50 read?
**A.** The IC50 was 172 nM.

**Q.** How did the IC50 turn out when O=C(N[C@H]1CC[C@@H](C(=O)O)C1)c1ccc(-c2cccc(F)c2)nc1 [Example 11b, (1R,3S)-3-({[6-(3-Fluorophenyl)pyridin-3-yl]carbonyl}amino)cyclopentanecarboxylic acid] was run?
**A.** The IC50 was 13.7 nM.

**Q.** With O=C(NC1CCC(N2CCCOCC2)CC1)c1ccc(-c2cccc(F)c2)nc1 (centres unmarked) [Example 53, 6-(3-Fluorophenyl)-N-[4-(1,4-oxazepan-4-yl)cyclohexyl]nicotinamide] as the molecule, how does the IC50 read?
**A.** Its IC50 is 9.26 nM.

**Q.** Which IC50 does the source give for O=C(N[C@H]1CC[C@@H](C(=O)NC2CCCC2)CC1)c1ccc(-c2cccc(F)c2)nc1 [Example 69, N-[cis-4-(Cyclopentylcarbmoyl)cyclohexyl]-6-(3-fluorophenyl)nicotinamide] here?
**A.** The IC50 was 14.7 nM.

**Q.** Which IC50 does the source give for O=C(N[C@H]1CCC[C@@H](C(=O)NC2CCCC2)C1)c1ccc(-c2cccc(F)c2)nc1 (relative stereo) [Example 33, N-[cis-3-(Cyclopentylcarbamoyl)cyclohexyl]-6-(3-fluorophenyl)nicotinamide] here?
**A.** Its IC50 is 10 nM.

**Q.** For CCN1CCN(C(=O)[C@H]2CCC[C@@H](NC(=O)c3ccc(-c4cccc(F)c4)nc3)C2)CC1 (racemic) [Example 41, N-{cis-3-[(4-Ethylpiperazin-1-yl)carbonyl]cyclohexyl}-6-(3-fluorophenyl)nicotinamide], which IC50 is on record?
**A.** Its IC50 is 7.18 nM.

**Q.** NC1CN(C(=O)[C@H]2CC[C@H](NC(=O)c3ccc(-c4cccc(F)c4)nc3)CC2)C1 [Example 100, N-{trans-4-[(3-Aminoazetidin-1-yl)carbonyl]cyclohexyl}-6-(3-fluorophenyl)nicotinamide] was tested. Which IC50 did it give?
**A.** Its IC50 is 12.9 nM.

From patent US20100173888A1 (Pfizer Inc, priority 2008, published 2010)
